Measured values from ChEMBL document CHEMBL3044915, “Synthesis and Insecticidal Activity of N-(4-Aryloxybenzyl)-pyrazolecarboxamide Derivatives” (1996).

What was measured:
Type in all cases: functional
Nephotettix cincticeps [1] = test: Insecticidal activity against green rice Nephotettix cincticeps (green rice leafhopper) third-instar larvae assessed as mortality at 0.8 ppm applied through spray measured after 4 days; conditions: for mortality at 0.8 ppm: Nephotettix cincticeps, 96 h
Nephotettix cincticeps [2] = test: Insecticidal activity against green rice Nephotettix cincticeps (green rice leafhopper) third-instar larvae assessed as mortality at 50 ppm applied through spray measured after 4 days; conditions: 96 h
Nephotettix cincticeps [3] = test: Insecticidal activity against green rice Nephotettix cincticeps (green rice leafhopper) third-instar larvae assessed as mortality at 3.1 ppm applied through spray measured after 4 days; conditions: for mortality at 3.1 ppm: Nephotettix cincticeps, 96 h
Nephotettix cincticeps [4] = test: Insecticidal activity against green rice Nephotettix cincticeps (green rice leafhopper) third-instar larvae assessed as mortality at 12.5 ppm applied through spray measured after 4 days; conditions: 96 h
Tetranychus urticae [5] = test: Insecticidal activity against Tetranychus urticae (two-spotted spider mite) assessed as mortality at 3.1 ppm
Tetranychus urticae [6] = test: Insecticidal activity against Tetranychus urticae (two-spotted spider mite) assessed as mortality at 12.5 ppm
Myzus persicae [7] = test: Insecticidal activity against Myzus persicae (green peach aphid) assessed as mortality at 12.5 ppm measured after 4 days; conditions: 96 h
Plutella xylostella [8] = test: Insecticidal activity against Plutella xylostella (diamondback moth) third-instar larvae in compound treated cabbage leaf assessed as mortality at 12.5 ppm measured after 4 days; conditions: 96 h
Nilaparvata lugens [9] = test: Insecticidal activity against Nilaparvata lugens (brown planthopper) third-instar larvae assessed as mortality at 12.5 ppm applied through spray measured after 5 days; conditions: 120 h
Nilaparvata lugens [10] = test: Insecticidal activity against Nilaparvata lugens (brown planthopper) third-instar larvae assessed as mortality at 3.1 ppm applied through spray measured after 5 days; conditions: 120 h
Myzus persicae [11] = test: Insecticidal activity against Myzus persicae (green peach aphid) assessed as mortality at 3.1 ppm measured after 4 days; conditions: 96 h
Plutella xylostella [12] = test: Insecticidal activity against Plutella xylostella (diamondback moth) third-instar larvae in compound treated cabbage leaf assessed as mortality at 0.8 ppm measured after 4 days; conditions: 96 h
Myzus persicae [13] = test: Insecticidal activity against Myzus persicae (green peach aphid) assessed as mortality at 0.8 ppm measured after 4 days; conditions: 96 h
Plutella xylostella [14] = test: Insecticidal activity against Plutella xylostella (diamondback moth) third-instar larvae in compound treated cabbage leaf assessed as mortality at 3.1 ppm measured after 4 days; conditions: 96 h
Nilaparvata lugens [15] = test: Insecticidal activity against Nilaparvata lugens (brown planthopper) third-instar larvae assessed as mortality at 0.8 ppm applied through spray measured after 5 days; conditions: 120 h

Row | SMILES | mortality at 50 ppm (Nephotettix cincticeps [2]) | mortality at 3.1 ppm (Nephotettix cincticeps [3]) | mortality at 12.5 ppm (Nephotettix cincticeps [4]) | further results
1 | Cc1nn(C)c(C(=O)NCc2ccc(Oc3ccc(C(F)(F)F)cc3)cc2)c1Cl | 100% | 80% | 80% | mortality at 0.8 ppm (Nephotettix cincticeps [1]): 30%
2 | CC1CCc2c1nn(C)c2C(=O)NCc1ccc(C(C)(C)C)cc1 (centres undefined) |  |  | 30% | mortality at 3.1 ppm (Tetranychus urticae [5]): 100%; mortality at 12.5 ppm (Tetranychus urticae [6]): 100%; mortality at 12.5 ppm (Myzus persicae [7]): 0%; mortality at 12.5 ppm (Plutella xylostella [8]): 0%; mortality at 12.5 ppm (Nilaparvata lugens [9]): 0%
3 | CC1CCc2c1nn(C)c2C(=O)NCc1ccc(Oc2ccc([N+](=O)[O-])cc2)cc1 (centres undefined) |  | 100% | 100% | mortality at 3.1 ppm (Nilaparvata lugens [10]): 80%; mortality at 3.1 ppm (Myzus persicae [11]): 100%; mortality at 3.1 ppm (Tetranychus urticae [5]): 30%; mortality at 0.8 ppm (Nephotettix cincticeps [1]): 30%; mortality at 0.8 ppm (Plutella xylostella [12]): 0%; mortality at 0.8 ppm (Myzus persicae [13]): 30%; mortality at 12.5 ppm (Tetranychus urticae [6]): 80%; mortality at 12.5 ppm (Myzus persicae [7]): 100%; mortality at 3.1 ppm (Plutella xylostella [14]): 100%; mortality at 12.5 ppm (Plutella xylostella [8]): 100%; mortality at 0.8 ppm (Nilaparvata lugens [15]): 0%; mortality at 12.5 ppm (Nilaparvata lugens [9]): 80%
4 | CC1CCc2c1nn(C)c2C(=O)NCc1ccc(Oc2ccc(C#N)cc2)cc1 (centres undefined) |  | 0% | 30% | mortality at 3.1 ppm (Nilaparvata lugens [10]): 80%; mortality at 3.1 ppm (Myzus persicae [11]): 80%; mortality at 3.1 ppm (Tetranychus urticae [5]): 100%; mortality at 0.8 ppm (Plutella xylostella [12]): 30%; mortality at 0.8 ppm (Myzus persicae [13]): 0%; mortality at 12.5 ppm (Tetranychus urticae [6]): 100%; mortality at 12.5 ppm (Myzus persicae [7]): 100%; mortality at 3.1 ppm (Plutella xylostella [14]): 100%; mortality at 12.5 ppm (Plutella xylostella [8]): 100%; mortality at 0.8 ppm (Nilaparvata lugens [15]): 80%; mortality at 12.5 ppm (Nilaparvata lugens [9]): 100%
5 | CSc1ccc(Oc2ccc(CNC(=O)c3c4c(nn3C)C(C)CC4)cc2)cc1 (centres undefined) |  | 80% | 100% | mortality at 3.1 ppm (Nilaparvata lugens [10]): 30%; mortality at 3.1 ppm (Myzus persicae [11]): 100%; mortality at 3.1 ppm (Tetranychus urticae [5]): 80%; mortality at 0.8 ppm (Nephotettix cincticeps [1]): 30%; mortality at 0.8 ppm (Plutella xylostella [12]): 0%; mortality at 0.8 ppm (Myzus persicae [13]): 0%; mortality at 12.5 ppm (Tetranychus urticae [6]): 100%; mortality at 12.5 ppm (Myzus persicae [7]): 100%; mortality at 3.1 ppm (Plutella xylostella [14]): 80%; mortality at 12.5 ppm (Plutella xylostella [8]): 100%; mortality at 0.8 ppm (Nilaparvata lugens [15]): 30%; mortality at 12.5 ppm (Nilaparvata lugens [9]): 80%
6 | CC1CCc2c1nn(C)c2C(=O)NC(C)(C)c1ccc(Oc2ccc(C(F)(F)F)cc2)cc1 (centres undefined) | 0% |  |  | 
7 | CC(C)c1nn(C)c(C(=O)NCc2ccc(Oc3ccc(C(F)(F)F)cc3)cc2)c1Cl | 80% | 30% | 80% | 
8 | Cn1nc2c(c1C(=O)NCc1ccc(Oc3ccc(C(F)(F)F)cc3)cc1)CCC2 | 100% | 100% | 100% | mortality at 0.8 ppm (Nephotettix cincticeps [1]): 0%
9 | CCC1CCc2c1nn(C)c2C(=O)NCc1ccc(Oc2ccc(C(F)(F)F)cc2)cc1 (centres undefined) | 100% | 30% | 100% | mortality at 0.8 ppm (Nephotettix cincticeps [1]): 0%
10 | Cn1nc2c(c1C(=O)NCc1ccc(Oc3ccc(C(F)(F)F)cc3)cc1)CCCC2 | 100% | 80% | 80% | mortality at 0.8 ppm (Nephotettix cincticeps [1]): 0%
11 | CC1CCCc2c1nn(C)c2C(=O)NCc1ccc(Oc2ccc(C(F)(F)F)cc2)cc1 (centres undefined) | 100% | 0% | 100% | mortality at 0.8 ppm (Nephotettix cincticeps [1]): 0%
12 | CCc1nn(C)c(C(=O)NCc2ccc(Oc3ccc(C(F)(F)F)cc3)cc2)c1Br | 100% | 30% | 100% | mortality at 0.8 ppm (Nephotettix cincticeps [1]): 30%
13 | CCc1nn(C)c(C(=O)NCc2ccc(Oc3ccc(C(F)(F)F)cc3)cc2)c1F | 100% | 30% | 100% | mortality at 0.8 ppm (Nephotettix cincticeps [1]): 0%
14 | CCc1cc(C(=O)NCc2ccc(Oc3ccc(C(F)(F)F)cc3)cc2)n(C)n1 | 100% | 30% | 100% | 
15 | Cn1ncc(Cl)c1C(=O)NCc1ccc(Oc2ccc(C(F)(F)F)cc2)cc1 | 100% | 30% | 80% | 
16 | CCc1nn(C)c(C(=O)NCc2ccc(Oc3ccc([N+](=O)[O-])cc3)cc2)c1Cl | 100% | 100% | 100% | 
17 | CCc1nn(C)c(C(=O)NCc2ccc(Oc3ccc(C#N)cc3)cc2)c1Cl | 100% | 0% | 100% | 
18 | CCc1nn(C)c(C(=O)NCc2ccc(Oc3ccc(C(F)(F)F)cc3)cc2)c1Cl | 100% | 30% | 100% | 
19 | CCc1nn(C)c(C(=O)NCc2ccc(Oc3ccc(C(F)F)cc3)cc2)c1Cl | 100% | 100% | 100% | 
20 | CCc1nn(C)c(C(=O)NCc2ccc(Oc3ccc(S(C)(=O)=O)cc3)cc2)c1Cl | 100% | 30% | 100% | 

Row | SMILES | mortality at 50 ppm (Nephotettix cincticeps [2]) | mortality at 3.1 ppm (Nephotettix cincticeps [3]) | mortality at 12.5 ppm (Nephotettix cincticeps [4]) | further results
21 | CCc1nn(C)c(C(=O)NCc2ccc(Oc3ccc([S+](C)[O-])cc3)cc2)c1Cl (centres undefined) | 100% | 30% | 100% | 
22 | CCc1nn(C)c(C(=O)NCc2ccc(Oc3ccc(SC(C)C)cc3)cc2)c1Cl | 100% | 30% | 30% | 
23 | CCSc1ccc(Oc2ccc(CNC(=O)c3c(Cl)c(CC)nn3C)cc2)cc1 | 100% | 30% | 80% | 
24 | CCc1nn(C)c(C(=O)NCc2ccc(Oc3ccc(SC)cc3)cc2)c1Cl | 100% | 80% | 100% | 
25 | CCc1nn(C)c(C(=O)NCc2ccc(Oc3ccc(Cl)cc3)cc2)c1Cl | 100% | 80% | 80% | 
26 | CCc1nn(C)c(C(=O)NCc2ccc(Oc3ccc(OCC(F)(F)F)cc3)cc2)c1Cl | 100% |  | 30% | 
27 | CCc1nn(C)c(C(=O)NCc2ccc(Oc3ccc(OC(F)F)cc3)cc2)c1Cl | 100% | 80% | 100% | 
28 | CCc1nn(C)c(C(=O)NCc2ccc(Oc3ccc(OC)cc3)cc2)c1Cl | 100% | 30% | 100% | 
29 | CCc1nn(C)c(C(=O)NCc2ccc(Oc3ccc(OC(C)C)cc3)cc2)c1Cl | 80% | 0% | 30% | 
30 | CCc1nn(C)c(C(=O)NCc2ccc(Oc3ccc(CC(C)C)cc3)cc2)c1Cl | 0% |  |  | 
31 | CCc1ccc(Oc2ccc(CNC(=O)c3c(Cl)c(CC)nn3C)cc2)cc1 | 100% | 30% | 80% | 
32 | CCc1nn(C)c(C(=O)NCc2ccc(Oc3ccc(C(C)C)cc3)cc2)c1Cl | 80% |  | 30% | 
33 | CCc1nn(C)c(C(=O)NCc2ccc(Oc3ccccc3)cc2)c1Cl | 100% |  | 30% | 
34 | CC1CCc2c1nn(C)c2C(=O)NCc1ccc(Oc2ccc(C(F)(F)F)cc2)cc1 (racemic) |  |  |  | mortality at 3.1 ppm (Nilaparvata lugens [10]): 100%; mortality at 3.1 ppm (Myzus persicae [11]): 100%; mortality at 3.1 ppm (Tetranychus urticae [5]): 100%; mortality (Nephotettix cincticeps [1]): 30%; mortality at 0.8 ppm (Plutella xylostella [12]): 0%; mortality at 0.8 ppm (Myzus persicae [13]): 100%; mortality at 12.5 ppm (Tetranychus urticae [6]): 100%; mortality at 12.5 ppm (Myzus persicae [7]): 100%; mortality at 3.1 ppm (Plutella xylostella [14]): 80%; mortality at 12.5 ppm (Plutella xylostella [8]): 100%; mortality at 0.8 ppm (Nilaparvata lugens [15]): 100%; mortality at 12.5 ppm (Nilaparvata lugens [9]): 100%
35 | CC1CCc2c1nn(C)c2C(=O)NCc1ccc(Oc2ccc(C(F)(F)F)cc2)cc1 (single isomer, unassigned; (+)) |  |  |  | mortality (Nephotettix cincticeps [3]): 30%
36 | CC1CCc2c1nn(C)c2C(=O)NCc1ccc(Oc2ccc(C(F)(F)F)cc2)cc1 (single isomer, unassigned; (-)) | 100% |  | 100% | mortality (Nephotettix cincticeps [1]): 80%; mortality (Nephotettix cincticeps [3]): 100%
37 | CC1CCc2c1nn(C)c2C(=O)NC(C)c1ccc(Oc2ccc(C(F)(F)F)cc2)cc1 (single isomer, unassigned; diastereomer 2) | 100% | 80% | 100% | mortality at 0.8 ppm (Nephotettix cincticeps [1]): 0%
38 | CCc1nn(C)c(C(=O)NCc2ccc(C(C)(C)C)cc2)c1Cl [TEBUFENPYRAD] |  |  | 0% | mortality at 3.1 ppm (Tetranychus urticae [5]): 100%; mortality at 12.5 ppm (Tetranychus urticae [6]): 100%; mortality at 12.5 ppm (Myzus persicae [7]): 30%; mortality at 12.5 ppm (Plutella xylostella [8]): 0%; mortality at 12.5 ppm (Nilaparvata lugens [9]): 0%
39 | CCc1nn(C)c(C(=O)NCc2ccc(Oc3ccc(C)cc3)cc2)c1Cl [TOLFENPYRAD] | 100% | 30% | 100% | 
